From PubChem BioAssay AID1963858 (Molecular Pharmacology Branch, DTP, NCI, 2024)
Values joined by “and” are separate entries in the source; they are usually repeats but may differ in a detail not shown here. Identical values can stand only once.

Test system: HOP-62 multicell spheroids with HUVEC/MSC, viability
Test: Anticancer human tumor HOP-62 cell line growth inhibition [KRAS2];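 note: viability read after a week of compound exposure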;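 for viability, T/C: 100% = DMSO vehicle-treated spheroids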
Details: for viability, T/C: stronger effect = lower value
Procedure, shortened: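 KRAS-mutant tumor cells were grown as spheroids with HUVEC endothelial cells and human MSCs as stroma. Targeted agents were tested alone and with KRAS pathway inhibitors. Doses started at or near clinical Cmax, or 10 microM, descending half-log.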

[1] = curve of first compound, second compound 0.1 µM
[2] = curve of first compound, second compound 0.316 µM
[3] = curve of first compound, second compound 1 µM
[4] = curve of first compound, second compound 3.16 µM
[5] = second compound 0.1 µM, first compound 0.0316 µM
[6] = second compound 0.1 µM, first compound 0.1 µM
[7] = second compound 0.1 µM, first compound 0.316 µM
[8] = second compound 0.1 µM, first compound 1 µM
[9] = second compound 0.1 µM, first compound 3.16 µM
[10] = second compound 0.1 µM, first compound 10 µM
[11] = second compound 0.316 µM, first compound 0.0316 µM
[12] = second compound 0.316 µM, first compound 0.1 µM
[13] = second compound 0.316 µM, first compound 0.316 µM
[14] = second compound 0.316 µM, first compound 1 µM
[15] = second compound 0.316 µM, first compound 3.16 µM
[16] = second compound 0.316 µM, first compound 10 µM
[17] = second compound 1 µM, first compound 0.0316 µM
[18] = second compound 1 µM, first compound 0.1 µM
[19] = second compound 1 µM, first compound 0.316 µM
[20] = second compound 1 µM, first compound 1 µM
[21] = second compound 1 µM, first compound 3.16 µM
[22] = second compound 1 µM, first compound 10 µM
[23] = second compound 3.16 µM, first compound 0.0316 µM
[24] = second compound 3.16 µM, first compound 0.1 µM
[25] = second compound 3.16 µM, first compound 0.316 µM
[26] = second compound 3.16 µM, first compound 1 µM
[27] = second compound 3.16 µM, first compound 3.16 µM
[28] = second compound 3.16 µM, first compound 10 µM

Compound	IC50 [1] [nM]	IC50 [2] [nM]	IC50 [3] [nM]	IC50 [4] [nM]	viability, T/C [5] [%]	viability, T/C [6] [%]	viability, T/C [7] [%]	viability, T/C [8] [%]	viability, T/C [9] [%]	viability, T/C [10] [%]	viability, T/C [11] [%]	viability, T/C [12] [%]	viability, T/C [13] [%]	viability, T/C [14] [%]	viability, T/C [15] [%]	viability, T/C [16] [%]	viability, T/C [17] [%]	viability, T/C [18] [%]	viability, T/C [19] [%]	viability, T/C [20] [%]	other results
Cn1ncnc1[C@H]1c2n[nH]c(=O)c3cc(F)cc(c23)N[C@@H]1c1ccc(F)cc1																					viability, T/C (compound 0.000316 µM): 105% [middle of 5 runs]; viability, T/C (compound 0.001 µM): 102% (2×) and 95.9% and 103% (2×); viability, T/C (compound 0.00316 µM): 103% [middle of 5 runs]; viability, T/C (compound 0.01 µM): 99.4% [middle of 5 runs]; viability, T/C (compound 0.0316 µM): 98% [middle of 5 runs]; viability, T/C (compound 0.1 µM): 85.3% [middle of 5 runs]; IC50 (curve of compound): > 100 nM
COc1cc2nccc(Oc3ccc(NC(=O)C4(C(=O)Nc5ccc(F)cc5)CC4)cc3)c2cc1OC + C=CC(=O)N1CCN(c2nc(OCC3CCCN3C)nc3c2CCN(c2cccc4cccc(C)c24)C3)CC1CC#N	1060	31.6	< 31.6	< 31.6	50.5	51.4	49.5	53.4	29	12	42	38.5	47.9	53.8	24.9	8.51	27.4	31.1	25.3	30.6	IC50 (curve of first compound, second compound 0.0316 µM): 1910 nM; viability, T/C (second compound 0.0316 µM, first compound 0.0316 µM): 64.8%; viability, T/C (second compound 0.0316 µM, first compound 0.1 µM): 68.5%; viability, T/C (second compound 0.0316 µM, first compound 0.316 µM): 64%; viability, T/C (second compound 0.0316 µM, first compound 1 µM): 77.8%; viability, T/C (second compound 0.0316 µM, first compound 3.16 µM): 35.4%; viability, T/C (second compound 0.0316 µM, first compound 10 µM): 8.75%; viability, T/C [21]: 19.9%; viability, T/C [22]: 0.15%; viability, T/C [23]: 0.14%; viability, T/C [24]: 0.75%; viability, T/C [25]: 0.15%; viability, T/C [26]: 0.37%; viability, T/C [27]: 0.13%; viability, T/C [28]: 0.23%
C=CC(=O)N1CCN(c2nc(OCC3CCCN3C)nc3c2CCN(c2cccc4cccc(C)c24)C3)CC1CC#N (centres undefined)																					viability, T/C (compound 1 µM): 35.5% [middle of 17 runs]; IC50 (compound alone, run of 07/26/2021): 622 nM [middle of 6 runs]
Cn1nccc1Nc1nccc(-c2cc3c(s2)C(C)(C)N(CCN2CCOCC2)C3=O)n1 + CNCc1ccccc1-c1csc(C(C)Nc2nc(C)nc3cc(OC)c(OC)cc23)c1	1220	859	646	< 31.6	110	102	92.8	52.5	34.6	28.3	104	98.3	77.1	47.5	25.3	26.9	101	99	68.3	39.6	IC50 (curve of first compound, second compound 10 µM): < 31.6 nM; viability, T/C [21]: 27.6%; viability, T/C [22]: 27.1%; viability, T/C [23]: 1.01%; viability, T/C [24]: 2.12%; viability, T/C [25]: 0.23%; viability, T/C [26]: 0.16%; viability, T/C [27]: 0.1%; viability, T/C [28]: 0.18%; viability, T/C (second compound 10 µM, first compound 0.0316 µM): 0.19%; viability, T/C (second compound 10 µM, first compound 0.1 µM): 0.19%; viability, T/C (second compound 10 µM, first compound 0.316 µM): 0.2%; viability, T/C (second compound 10 µM, first compound 1 µM): 0.2%; viability, T/C (second compound 10 µM, first compound 3.16 µM): 0.22%; viability, T/C (second compound 10 µM, first compound 10 µM): 0.23%
